From patent US5389663A, “1-(1h-1,2,4-triazole-yl)-2-propanol compounds” (Takeda Chemical Industries, Ltd., priority 1991, dated 1995)

Tests used:
Candida albicans = assay: Protective effect against Candida albicans infection in mice; assay type: in vivo, Crj:CDF1 mice; details: 168 h, minimum lethal dose of Candida albicans iv, drug once immediately after infection, survival 7 days after infection
Source text: Test Method: Five-week old Crj:CDF1 mice were inoculated with the minimum lethal dose of Candida albicans intravenously. The test drug was given once immediately after infection. The effectiveness of the drug was expressed in ED50 values calculated by the Reed and Muench method from the survival rate 7 days after infection.

[1] = system: Candida albicans IFO 0583; assay: Paper disc agar diffusion, growth inhibition zone, Candida albicans IFO 0583; assay type: cell-based; details: Table 5, Medium A, 28° C., two-day culture, 1000 μ/ml, 8 mm disc; for zone of inhibition at 1000 µg/mL: Candida albicans, IFO0583, 48 h, read-out: Diameter of growth-inhibition zone
Description: Evaluation of the antifungal activities of the compound of formula (I) was conducted by the following method: a sheet of filter paper disc (manufactured by Toyo Seisakusho, 8 mm in diameter) soaked in a […] solution of a compound of formula (I) in methanol was placed on an agar plate containing various fungi, which was incubated at 28° C. for two days, and the diameter of the growth inhibition zone around the filter paper disc was measured. The following culture media were used: A: yeast nitrogen base agar medium (pH 7.0) B: Sabouraud agar medium
cpd. No. (Medium A, 28° C., two-day culture)

| SMILES | zone of inhibition at 1000 µg/mL [1] | other results |
| --- | --- | --- |
| CC(=C(Cn1cncn1)c1ccc(F)cc1F)S(=O)(=O)N(C)C (single isomer, unassigned) [Compound 35, N,N-dimethyl-3-(2,4-difluorophenyl)-4-(1H-1,2,4-triazol-1-yl)-2-butene-2-sulfonamide] | – | ED50 (Candida albicans; po): 20 mg/kg; Diameter of growth-inhibition zone [1]: 30 mm |
| CCCCNS(=O)(=O)[C@H](C)[C@](O)(Cn1cncn1)c1ccc(F)cc1F [Compound 4, N-butyl-[(2R,3R)-3-(2,4-difluorophenyl)-3-hydroxy-4-(1H-1,2,4-triazol-1-yl)-2-butane]sulfonamide] | 40 mm | ED50 (Candida albicans; po): 7.07 mg/kg |
| C[C@H]([C@](O)(Cn1cncn1)c1ccc(F)cc1F)S(=O)(=O)NC1CCCCC1 [Compound 6, N-cyclohexyl-[(2R,3R)-3(2,4-difluorophenyl)-3-hydroxy-4-(1H-1,2,4-triazol-1-yl)-2-butane]sulfonamide] | 40 mm | ED50 (Candida albicans; po): 7.07 mg/kg |
| C[C@H]([C@](O)(Cn1cncn1)c1ccc(F)cc1F)S(=O)(=O)N1CCOCC1 [Compound 8, 4-[(2R,3R)-3-(2,4-difluorophenyl)-3-hydroxy-4-(1H-1,2,4-triazol-1-yl)-2-butylsulfonyl]morpholine] | 40 mm | ED50 (Candida albicans; po): 20 mg/kg; ED50 (Candida albicans; sc): 28.3 mg/kg |
| C[C@H]([C@](O)(Cn1cncn1)c1ccc(F)cc1F)S(=O)(=O)NC1CC1 [Compound 10, N-cyclopropyl-[(2R,3R)-3-(2,4-difluorophenyl)-3-hydroxy-4-(1H-1,2,4-triazol-1-yl)-2-butane]sulfonamide] | 35 mm | ED50 (Candida albicans; po): 7.07 mg/kg; ED50 (Candida albicans; sc): 14.1 mg/kg |
| CNS(=O)(=O)[C@H](C)[C@](O)(Cn1cncn1)c1ccc(F)cc1F [Compound 12, N-methyl-[(2R,3R)-3-(2,4-difluorophenyl)-3-hydroxy-4(1H -1,2,4-triazol-1-yl)-2-butane]sulfonamide] | 37 mm | ED50 (Candida albicans; po): 5 mg/kg |
| COc1ccc(CNS(=O)(=O)[C@H](C)[C@](O)(Cn2cncn2)c2ccc(F)cc2F)cc1OC [Compound 60, N-(3,4-dimethoxybenzyl)-[(2R,3R)-3-(2,4-difluorophenyl)-3-hydroxy-4-(1H-1,2,4-triazol-1-yl)-2-butane]sulfonamide] | 35 mm | – |
| CCCCCCCCCCCCN(C)S(=O)(=O)[C@H](C)[C@](O)(Cn1cncn1)c1ccc(F)cc1F [Compound 61, N-dodecyl-N-methyl-[(2R,3R)-3-(2,4-difluorophenyl)-3-hydroxy-4-(1H-1,2,4-triazol-1-yl)-2-butane]sulfonamide] | 18 mm | – |
| C#CCN(C)S(=O)(=O)[C@H](C)[C@](O)(Cn1cncn1)c1ccc(F)cc1F [Compound 62, N-methyl-N-(2-propinyl)-[(2R,3R)-3-(2,4-difluorophenyl)-3-hydroxy-4-(1H-1,2,4-triazol-1-yl)-2-butane]sulfonamide] | 45 mm | – |
| C[C@H]([C@](O)(Cn1cncn1)c1ccc(F)cc1F)S(=O)(=O)N(C)CC#CC(C)(C)C [Compound 63, N-(4,4-dimethyl-2-pentynyl)-N-methyl-[(2R,3R)-3-(2,4-difluorophenyl)-3-hydroxy-4-(1H-1,2,4-triazol-1-yl)-2-butane]sulfonamide] | 40 mm | – |
| C[C@H]([C@](O)(Cn1cncn1)c1ccc(F)cc1F)S(=O)(=O)N(C)Cc1ccc(C(F)(F)F)cc1 [Compound 66, N-methyl-N-(4-trifluoromethylbenzyl)-[(2R,3R)-3-(2,4-difluorophenyl)-3-hydroxy-4-(1H-1,2,4-triazol-1-yl)-2-butane]sulfonamide] | 42 mm | – |
| C[C@H]([C@](O)(Cn1cncn1)c1ccc(F)cc1F)S(=O)(=O)N(C)Cc1ccc(C(F)(F)F)cc1F [Compound 67, N-(2-fluoro-4-trifluoromethylbenzyl)-N-methyl-[(2R,3R)-3-(2,4-difluorophenyl)-3-hydroxy-4-(1H-1,2,4-triazol-1-yl)-2-butane]sulfonamide] | 42 mm | – |
| C[C@H]([C@](O)(Cn1cncn1)c1ccc(F)cc1F)S(=O)(=O)N(C)C/C=C/C#CC(C)(C)C [Compound 68, N-[(E)-6,6-dimethyl-2-hepten-4-ynyl]-N-methyl-[(2R,3R)-3-(2,4-difluorophenyl)-3-hydroxy-4-(1H-1,2,4-triazol-1-yl)-2-butane]sulfonamide] | 42 mm | – |
| C[C@H]([C@](O)(Cn1cncn1)c1ccc(F)cc1F)S(=O)(=O)N(C)C/C=C\C#CC(C)(C)C [Compound 69] | 42 mm | – |
| COc1ccc(N2CCN(S(=O)(=O)[C@H](C)[C@](O)(Cn3cncn3)c3ccc(F)cc3F)CC2)cc1 [Compound 72, 4-[(2R,3R)-3-(2,4-difluorophenyl)-3-hydroxy-4-(1H-1,2,4-triazol-1-yl)-2-butanesulfonyl]-1-(4-methoxyphenyl)piperazine] | 48 mm | – |
| C[C@H]([C@](O)(Cn1cncn1)c1ccc(F)cc1F)S(=O)(=O)N1CCN(c2ccccn2)CC1 [Compound 74, 4-[(2R,3R)-3-(2,4-difluorophenyl)-3-hydroxy-4-(1H-1,2,4-triazol-1-yl)-2-butanesulfonyl]-1-(2-pyridyl) piperazine] | 44 mm | – |
| C[C@H]([C@](O)(Cn1cncn1)c1ccc(F)cc1F)S(=O)(=O)N(C)c1ncccn1 [Compound 77, N-methyl-N-(2-pyrimidinyl)-[(2R,3R)-3-(2,4-difluorophenyl)-3-hydroxy-4-(1H-1,2,4-triazol-1-yl)-2-butane]sulfonamide] | 40 mm | – |
| C[C@H]([C@](O)(Cn1cncn1)c1ccc(F)cc1F)S(=O)(=O)N(C)Cc1ccccn1 [Compound 79] | 30 mm | – |
| Cc1ncsc1CCN(C)S(=O)(=O)[C@H](C)[C@](O)(Cn1cncn1)c1ccc(F)cc1F [Compound 80] | 40 mm | – |
| Cc1nnc(N(C)S(=O)(=O)[C@H](C)[C@](O)(Cn2cncn2)c2ccc(F)cc2F)s1 [Compound 81] | 40 mm | – |
| CSc1nnc(CN(C)S(=O)(=O)[C@H](C)[C@](O)(Cn2cncn2)c2ccc(F)cc2F)s1 [Compound 82] | 40 mm | – |
| CSc1nnc(CCN(C)S(=O)(=O)[C@H](C)[C@](O)(Cn2cncn2)c2ccc(F)cc2F)s1 [Compound 83] | 40 mm | – |
| C[C@H]([C@](O)(Cn1cncn1)c1ccc(F)cc1F)S(=O)(=O)N(C)CCc1nnc(S(C)(=O)=O)s1 [Compound 84] | 23 mm | – |
| C[C@H]([C@](O)(Cn1ccnc1)c1ccc(F)cc1F)S(=O)(=O)N(C)C [Compound 85, N,N-dimethyl-[(2R,3R)-3-(2,4-difluorophenyl)-3-hydroxy-4-(1-imidazolyl)-2-butane]sulfonamide] | 45 mm | – |
| C[C@@H](NS(=O)(=O)c1cccs1)[C@](O)(Cn1cncn1)c1ccc(F)cc1F [Compound 87] | 38 mm | – |
| C[C@@H](N(C)S(=O)(=O)c1nccn1C)[C@](O)(Cn1cncn1)c1ccc(F)cc1F [Compound 88] | 46 mm | – |
| CC(=O)Nc1nc(C)c(S(=O)(=O)N(C)[C@H](C)[C@](O)(Cn2cncn2)c2ccc(F)cc2F)s1 [Compound 89] | 35 mm | – |
| C[C@@H](N(C)S(=O)(=O)c1cccs1)[C@](O)(Cn1cncn1)c1ccc(F)cc1F [Compound 90] | 40 mm | – |
| C[C@H]([C@](O)(Cn1cncn1)c1ccc(F)cc1F)S(=O)(=O)N1CCN(c2ncncc2F)CC1 [Compound 92] | 53 mm | – |
